Source: the pKa sets of Baltruschat and Czodrowski (2020)

Details: acidic group

SMILES	pKa
CC(C[Si](C)(C)CCl)C(=O)O (stereo not given)	5.32
CCCSCC(=O)O	3.77
COc1cc2ccccc2cc1C(=O)O	3.82
CN1C(=O)NCc2[nH]cnc21	11.1
O=C(O)[C@@H]1O[C@H](Oc2ccc3[nH+]ccc(O)c3c2)[C@@H](O)[C@H](O)[C@H]1O	3.15
O=C(/C=C(/[70SH])c1ccccc1)Nc1ccccc1	4.51
CN(C)c1ncnc2nc[nH]c12	10.5
CC[NH+]1CCC[C@@H]1CNC(=O)c1c(OC)ccc([N+](=O)[O-])c1O	5.75
CS(=O)(=O)c1ccc(S(=O)(=O)NCc2ccccc2)cc1	10.2
C[Si](C)(CC(=O)O)c1ccccc1	5.27
COc1ccc(C(=S)Nc2ccc(Br)cc2)cc1	10.9
CCOC(=O)c1cccc(O)c1	9.05
CCN(CC)Cc1cc(C)ccc1O	10.8
O=C(O)c1csc([N+](=O)[O-])c1	3.24
O=C1C=C(O)C(=O)c2ccccc21	3.19
N#CC(=C(O)O)c1ccccc1	0.99
O=[N+]([O-])Nc1ccccc1	4.74
O=C(O)[C@H](O)c1ccc([N+](=O)[O-])cc1	2.99
NS(=O)(=O)c1cccc(C(=O)O)c1	3.61
Cc1cn([C@@H]2C[C@@H](O)[C@H](CO)O2)c(=O)[nH]c1=S	8.8
[O-]c1ccc(O)cc1	11.6
COc1cc([N+](=O)[O-])ccc1O	6.83
Oc1cc(-c2ccccc2)n[nH]1	11.4
O=S(=O)(Nc1ccc(Cl)cc1)c1ccccc1	7.91
O=C(O)c1cccc(I)c1	3.83
O=C1O[C@@H]([C@H](O)CO)C([O-])=C1O	11.6
Cc1cc(O)n(-c2ccccc2)n1	11.3

SMILES	pKa
[NH3+]CCC(=O)NC(Cc1c[nH]c[nH+]1)C(=O)O (stereo not given)	2.96
O=C(O)Cc1ccc2ccccc2c1	4.26
Cc1ccccc1/C=C/C(=O)O	4.5
Oc1c(I)cc(I)c2cccnc12	8
C[NH+](C)Cc1ccc(O)cc1	8.83
Cc1cc(C)[nH]n1	15
O=C(O)c1ccccc1-c1nnn[nH]1	2.9
CCC(=O)CC(=O)CC	9.82
CCc1ccc(C(=O)/C=C/C(=O)O)cc1	3.38
OC(c1ccncc1)(c1ccncc1)c1ccccn1	12.4
CNS(=O)(=O)C(F)(F)F	7.56
C[C@@H](C(=O)c1ccc(O)cc1)[NH+](C)Cc1ccccc1	7.5
[O-][n+]1cnc2[nH]cnc2c1NCc1ccccc1	8.22
CCC[NH2+]C(C)C(=O)O (stereo not given)	2.21
COc1cccc(S)c1	6.39
O=C(CC(=O)C(F)(F)F)c1ccccc1	6.3
O=[Se](O)c1ccc2ccccc2c1	4.67
[NH3+]CC[SeH]	5
C[n+]1cc(O)c2ccccc2c1	4.93
O=C(O)c1cnc(Br)s1	2.96
CC1=C/C(=N\c2ccc(O)cc2)C(C(C)C)=CC1=O	8.85
Oc1ccc2ncccc2c1	8.82
O=C1CCC(Cl)C1=O (stereo not given)	7.05
CC(C)S(=O)O	2.3
COc1cccc(O)c1O	9.28
CC(c1cccc([N+](=O)[O-])c1)[N+](=O)[O-] (stereo not given)	6.67
CCC(=O)NBr	8.2

SMILES	pKa
CCC#CC#CC#CC(=O)O	1.67
Cc1ccccc(=O)c1O	7.92
CC(C)N(C(=S)S)C(C)C	4.3
Cc1coc(C)c1C(=O)O	4.55
NC(=O)[C@@H]1CCCN1	8.82
CCc1cc(C(=O)O)cs1	4.19
CC(=O)NOC(C)=O	6.81
COc1ccc(NC=S)cc1	11.7
CC/C=C/CC1=[NH+]C(C(=O)O)[C@@H]2SC(C)(C)C(C(=O)O)N12 (stereo not given in full)	2.4
CC1(C)C=CC(C)(c2cc3ccc(=O)oc3cc2O)CC1 (stereo not given)	8.12
Cc1ncc(CO)c(C[NH3+])c1O	8.02
CCOC(=O)c1c(C)nc(C)c(C(=O)OCC)c1-c1ccc(NS(=O)(=O)c2ccc(N)cc2)cc1	9.15
COc1ccccc1/C=C/C=N\O	11.3
[O-]c1nc(C(F)(F)F)nc2nc[nH]c12	11.2
O=C(c1ccccc1)c1cccc(O)c1	9
C[Si](C)(C)O[Si](C)(C)CCCC(=O)O	5.03
CC[N+](O)(CC)c1ccccc1	4.53
CC1CCC(=O)C1=O (stereo not given)	9.6
On1nnc2c(Cl)cccc21	3.9
CC(C)OO	12.1
CCOC(=O)[C@H]1CC(=O)N[C@@H]1C(=O)O	3.5
Cc1cccc2c1C(=O)NC2=O	10.5
O=[N+]([O-])c1[nH]cnc1Cl	5.9
NC(=O)CN(CCN(CC(N)=O)Cc1ccccc1O)Cc1ccccc1[O-]	11
Cc1ccc(S(=O)(=O)NCCC(=O)[O-])cc1	11.2
CC(C)NC(=S)S	3.1

Same assay, conditions: basic group

SMILES	pKa
C[NH+](C)CCCNc1c2ccccc2nc2cccc([N+](=O)[O-])c12	6.2
[O-]c1ccccc1C1=NCCN1	12.6
COc1ccc(-c2cnc(-c3ccc(OC)cc3)o2)cc1	1.41
Cc1ccc(NCC[NH2+]c2ccc(C)cc2)cc1	2.7
C[NH+](C)CCCN	6.74
CN(C)Cc1cc([N+](=O)[O-])ccc1[O-]	9.93
CN1CCC(NNc2ccccc2)CC1	8.7
C=CCN(C)CCOC(=O)C(=C)C	7.39
CN(C)c1ncnc2nc[nH]c12	3.87
COc1ccc(C2CCCN2C)cc1 (stereo not given)	8.9
[NH3+]/N=C/c1ncnc2nc[nH]c12	2.8
NCC[Se-]	10.9
CCOC(=O)Cc1ccccn1	4.25
CCN(CC)Cc1cc(C)ccc1O	8.94
Cn1c(=O)c2c(ncn2CC(=O)[O-])n(C)c1=O	4.48
CCC(N)C(=O)[O-] (stereo not given)	9.67
CSc1ccc(N)c([N+](=O)[O-])c1	-0.28
COc1ccc(Nc2ccc(N)cc2)cc1	5.9
CCN(CC)Cc1ccccc1	9.44
CNCC(=O)NCCc1c[nH]cn1	8.31
CCCCCCNc1ccccc1	5.21
CC(C)[NH2+]CC(O)c1cccc(N)c1 (stereo not given)	4.22
CCN(c1ccccc1)C(C)(C)C	8.02
NCCC(=O)NCCc1c[nH]cn1	9.21

SMILES	pKa
Cn1cc[nH+]c1-c1ccccn1	0.4
Cc1cc(O)n(-c2ccccc2)n1	1.07
CNC(=O)/C=C(\c1ccc2nc(N)n(C(C)C)c2c1)c1cccc(F)c1F	6.69
COCCN(C)C	8.96
Cn1cnc2ncncc21	2.29
CCNc1ccnc([S-])n1	11.1
CO[C@H]1C=CC2=CCN3CC[C@H](CO)/C(=C\CO)[C@]23C1	7.79
COC(=O)CCCc1c[nH]cn1	7.33
COCCN(CCOC)c1ccccc1	4.11
CCc1cc(/N=N/c2ccc(N(C)C)cc2)ccc1C	2.59
Oc1c(I)cc(I)c2cccnc12	2.7
CCC(C)[C@H](N)C(=O)[O-] (stereo not given in full)	9.62
CC1=CSC2=NCCN12	9.81
C[NH+](C)CCC/N=C(\c1ccccc1)c1ccccc1Cl	3.46
C[C@H](N)CCC(=O)[O-]	10.4
CN(C)c1ccc(N2CCOCC2)cc1	5.7
Cc1cc(C)[nH]n1	4.32
CN(c1ccccc1)C1CCCCC1	6.35
CC1(C)CC(Nc2ccccc2)=C/C(=N/c2ccccc2)C1	9.89
CCCc1ccccc1N	4.36
NCCC[NH2+]CCCC[NH3+]	8.35
C=CCN1CCOCC1	7.05
CCN1CCCC1	11
[O-][n+]1cnc2[nH]cnc2c1NCc1ccccc1	2.66

SMILES	pKa
C=C(C)C(=O)OCCCN	9.62
O=[N+]([O-])c1ccc2[nH]c(-c3cccs3)nc2c1	2.36
CC(C)(C)Nc1ccccc1	7.15
C[C@@H](C=C(c1ccccc1)c1ccccc1)N(C)C	9.26
NCCNCCO	9.67
NC1=N[C@@H](CC(=O)[O-])C(=O)N1CCCC(N)C(=O)[O-] (stereo not given in full)	9.55
CNc1ncnc2scnc12	2.84
NNC(=O)c1cccc([NH3+])c1	2.57
COc1ccc(OC)c2c1nc(C)n2C	6.12
Cc1ccc(C)nc1	6.4
Oc1ccc2ncccc2c1	5.26
O=C1c2ccccc2CN1C1CC2CCC(C1)N2Cc1ccccc1 (stereo not given)	8.71
Oc1ccccc1CN1CCCNCCCNCCC1	9.87
CCN1CC[C@]2(C)c3cc(O)ccc3C[C@H]1[C@H]2C	9.42
C1CCN2C[C@@H]3C[C@@H](CN4CCCC[C@@H]34)[C@H]2C1	11.3
O=C1[C@@H]2C[C@@H](CN3CCCC[C@@H]23)[C@H]2CCCCN12	7.7
CC(=O)Nc1cccc2cc3ccccc3nc12	3
C1CCN(C2CC[NH2+]CC2)CC1	7.97
Cc1nn(C)c(C)c1Cl	1.96
COc1cccnc1	4.89
NCCc1c[nH]cn1	9.87
COc1ccccc1C(=N)c1ccccc1	7.29
O=[N+]([O-])c1ccc([O-])c(CN2CCOCC2)c1	7.92
Cn1cnc2ccccc21	5.65

SMILES	pKa
Cc1nnc2c(c1C)CCC2	5.36
CSc1ccccn1	3.62
Nc1ccc2[nH]c(Cc3ccccc3)nc2c1	6.4
Cc1ncc(CO)c(C[NH3+])c1O	3.38
CC(=O)/N=c1\ccccn1C	7.12
[O-]c1nc(C(F)(F)F)nc2nc[nH]c12	5.1
Nc1cc[nH+]c([S-])n1	3.32
CCCC1N=C(N)N=C(Nc2ccc(SC)cc2)N1 (stereo not given)	10.6
[NH3+][C@@H](Cc1nc[nH]c1I)C(=O)[O-]	4.18
Cc1cc(-c2ccccc2)n[n+](C)c1NCCN1CCOCC1	5.12
CC(C)/N=C/N(C)c1ccc(-c2c[nH]cn2)cc1	10.4
CCCCN(CC(C)O)CC(C)O (stereo not given)	9.3
C1CCN2CCCCN2C1	6.79
C[Si](C)(CNC1CCCCC1)O[Si](C)(C)CNC1CCCCC1	10.1
O=[N+]([O-])c1ccc(-n2cnnn2)cc1	-3.92
Cc1csc2nccn12	5.36
NCc1ccc(Cl)cc1	9.24
O=[N+]([O-])c1[nH]cnc1Cl	-1.3
C[N+](C)(C)CCOC(=O)/C=C/c1c[nH]cn1	4.6
CCN(CC)Cc1cc([N+](=O)[O-])ccc1[O-]	11
C[NH2+]CCNCCN	9.57
CC(C)(N)Cc1ccccc1	10.1
CCN(C)CCOCCN(C)C	9.65
